Laboratory results from patent US20250059162A1, “MULTI-PROTEIN DEGRADATION AGENT HAVING IMIDE SKELETON” (SUZHOU KINTOR PHARMACEUTICALS, INC., priority 2021, published 2025).

Assays:
Assay type in all cases: cell-based
CK1α protein = target: T1, CK1α protein (Homo sapiens, UniProt P48729); experiment: CK1α protein degradation (Western blot); details: compound at 10 nM, 24 h, gray value relative to Ctrl (DMSO)
T1 construct: endogenous in cells; host or cells: HL60
Experimental: (§1) HL60 cells in the exponential growth phase were digested and plated into a 6-well plate at 1×10^6 cells per well. The cell culture medium was RPMI-1640 (meilunbio, MA0215). After a day of adherent growth of the cells, the compound of the present invention was added as a test drug for culture, and proteins were extracted 24 h later (Ctrl meant adding only DMSO at the same volume).
(§2) In the 6-well plate, the culture medium RPMI-1640 (meilunbio, MA0215) was removed, and the cells were washed once with PBS, digested with trypsin, and centrifuged and collected separately into 1.5 mL centrifuge tubes. 100 μL of RIPA lysis buffer (containing 100 μM PMSF) was added to each tube, mixed thoroughly, allowed to stand on ice for 30 min and then centrifuged at 12000 rpm at 4° C. using a centrifuge for 20 min. The supernatant was used for Western blotting experiments. The sample can be stored at −80° C.
(§3) By using the BCA protein concentration determination kit (from Thermo Fisher, Cat. No. 23225), the BSA standard determination solution and the samples to be tested (the samples to be tested can be diluted and then tested) were prepared according to the table A below. Samples were added to the 96-well plate. Each well was supplemented with PBS to 20 μL, and then 200 μL of BCA working solution (prepared according to the kit) was added respectively and mixed evenly. The plate was placed at 60° C. for 10 min, and then the absorbance at 562 nm was detected. After the reading was recorded, a standard curve was plotted using concentration gradients of the standards, and the absorbance of the samples was substituted to calculate the protein concentration of the samples.
(§4) • 2.1 Protein denaturation: RIPA protein buffer (purchased from Solarbio, Cat. No. R0010) and 5× Loading Buffer (SDS, glycerin, bromophenol blue, TRIS) (purchased from Solarbio, Cat. No. P1040) were added, and the protein samples were denatured at 100° C. for 5 min. • 2.2 Sample loading and electrophoresis: 10% precast gel and the corresponding electrophoresis buffer were used. […]

GSPT1 protein = target: T2, GSPT1 protein (Homo sapiens, UniProt P15170); experiment: GSPT1 protein degradation in HL60 cells (Western blot); details: for Degradation of GSPT1 protein in HL60 cells (FIG. 1, in words): FIG. 1, concentration not stated; for remaining GSPT1 protein at 0.01 µM: HL-60, compound at 10 nM, 24 h, gray value relative to Ctrl (DMSO), read-out: Remaining amount of GSPT1 protein (@10 nM/Ctrl)
T2 construct: degradation of myc and GSPT1 proteins in HL60 cells; endogenous in cells; host or cells: HL60
Method in brief: (§5)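 HL60 cells (1×10^6 per well, RPMI-1640) treated with compound for 24 h, DMSO as control. Lysates normalised by BCA, equal protein run on SDS-PAGE and Western blotted with GAPDH loading control, ECL detection. Band gray values by densitometry taken as remaining protein.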

IKZF2 protein = target: T3, IKZF2 protein (Homo sapiens, UniProt Q9UKS7); experiment: IKZF2 protein degradation (Western blot); details: compound at 10 nM, 24 h, gray value relative to Ctrl (DMSO)
T3 construct: endogenous in cells; host or cells: HL60
Experimental: as §1, §2, §3, §4

c-Myc protein = target: T4, c-Myc protein (Homo sapiens, UniProt P01106); experiment: c-Myc protein degradation in HL60 cells (Western blot); details: for remaining activity at 0.01 µM: HL-60, compound at 10 nM, 24 h, gray value relative to Ctrl (DMSO), read-out: Remaining amount of c-Myc protein (@10 nM/Ctrl)
T4 construct: degradation of myc and GSPT1 proteins in HL60 cells; endogenous in cells; host or cells: HL60
Method in brief: as §5

HL60 cells = experiment: Anti-proliferation on HL60 cells (CellTiter-Glo, 3 days); details: Homo sapiens, HL-60, 72 h, 3 days incubation, CTG luminescence, IC50 by XLfit, read-out: HL60 cells Proliferation inhibitory activity
Method in brief: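 Log-phase cells were plated at 20000 cells/well and treated with compound dilutions in RPMI-1640 for 3 days, with 0.1% DMSO controls. Proliferation was read by CellTiter-Glo luminescence. IC50 was fitted from the inhibition rates.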

T1 sequence (P48729 whole entry): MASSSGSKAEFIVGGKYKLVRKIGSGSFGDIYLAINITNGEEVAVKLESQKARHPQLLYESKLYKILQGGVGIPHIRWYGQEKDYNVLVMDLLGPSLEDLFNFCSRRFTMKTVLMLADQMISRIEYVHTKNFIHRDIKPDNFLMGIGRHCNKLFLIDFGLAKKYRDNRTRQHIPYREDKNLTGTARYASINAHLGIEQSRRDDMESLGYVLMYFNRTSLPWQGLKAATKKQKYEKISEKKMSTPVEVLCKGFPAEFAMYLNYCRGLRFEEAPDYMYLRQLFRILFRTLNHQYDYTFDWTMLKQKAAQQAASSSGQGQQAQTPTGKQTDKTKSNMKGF
T3 sequence (Q9UKS7 whole entry): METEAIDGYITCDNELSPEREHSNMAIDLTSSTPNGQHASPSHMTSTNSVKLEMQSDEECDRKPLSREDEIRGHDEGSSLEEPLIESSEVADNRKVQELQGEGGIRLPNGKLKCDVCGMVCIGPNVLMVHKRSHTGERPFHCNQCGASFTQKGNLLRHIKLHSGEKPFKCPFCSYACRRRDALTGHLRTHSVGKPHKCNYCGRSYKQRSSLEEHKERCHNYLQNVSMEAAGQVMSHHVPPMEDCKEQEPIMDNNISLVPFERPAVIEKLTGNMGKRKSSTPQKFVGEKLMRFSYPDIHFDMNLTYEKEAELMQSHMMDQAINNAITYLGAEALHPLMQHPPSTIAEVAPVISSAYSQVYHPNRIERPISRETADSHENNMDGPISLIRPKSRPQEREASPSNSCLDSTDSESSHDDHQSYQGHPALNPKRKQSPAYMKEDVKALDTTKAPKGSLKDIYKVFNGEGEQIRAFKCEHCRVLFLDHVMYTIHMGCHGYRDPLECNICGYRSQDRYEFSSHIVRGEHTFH
T4 sequence (P01106 whole entry): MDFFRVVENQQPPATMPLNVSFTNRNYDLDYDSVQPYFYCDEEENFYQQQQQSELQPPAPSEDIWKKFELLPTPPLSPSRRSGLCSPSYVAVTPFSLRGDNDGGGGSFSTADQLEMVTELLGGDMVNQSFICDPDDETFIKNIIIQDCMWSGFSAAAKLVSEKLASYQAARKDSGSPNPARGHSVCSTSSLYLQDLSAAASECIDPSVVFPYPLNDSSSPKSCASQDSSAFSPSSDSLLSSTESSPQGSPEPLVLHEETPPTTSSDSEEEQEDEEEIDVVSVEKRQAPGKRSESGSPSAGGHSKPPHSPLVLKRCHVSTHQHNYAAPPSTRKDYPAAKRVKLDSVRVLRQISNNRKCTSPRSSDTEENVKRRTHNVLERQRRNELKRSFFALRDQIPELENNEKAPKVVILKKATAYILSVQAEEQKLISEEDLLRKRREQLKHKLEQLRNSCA
T2 sequence (P15170 whole entry): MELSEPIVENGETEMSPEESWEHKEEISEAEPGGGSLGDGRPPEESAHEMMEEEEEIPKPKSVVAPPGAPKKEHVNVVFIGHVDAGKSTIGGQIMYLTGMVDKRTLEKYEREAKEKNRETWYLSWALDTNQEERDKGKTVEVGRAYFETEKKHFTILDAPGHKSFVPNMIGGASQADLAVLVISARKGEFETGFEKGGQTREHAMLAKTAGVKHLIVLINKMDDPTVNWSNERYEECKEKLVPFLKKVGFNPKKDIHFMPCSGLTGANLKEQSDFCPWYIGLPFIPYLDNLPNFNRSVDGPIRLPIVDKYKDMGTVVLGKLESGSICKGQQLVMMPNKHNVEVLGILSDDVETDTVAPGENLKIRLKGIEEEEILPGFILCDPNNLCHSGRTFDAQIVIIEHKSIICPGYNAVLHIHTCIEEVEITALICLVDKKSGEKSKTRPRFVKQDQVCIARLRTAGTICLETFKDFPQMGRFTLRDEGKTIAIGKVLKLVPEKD

Row | SMILES | Remaining amount of CK1α protein (@10 nM/Ctrl) (CK1α protein) [%] | Degradation of GSPT1 protein in HL60 cells (FIG. 1, in words) (GSPT1 protein) | remaining GSPT1 protein at 0.01 µM (GSPT1 protein) [%] | Remaining amount of IKZF2 protein (@10 nM/Ctrl) (IKZF2 protein) [%] | remaining activity at 0.01 µM (c-Myc protein) [%] | IC50 (HL60 cells) [nM] | Degradation of GSPT1 protein in HL60 cells at 10 nM (FIG. 1, in words) (GSPT1 protein; 10 nM) | Degradation of c-Myc protein in HL60 cells at 10 nM (FIG. 1, in words) (c-Myc protein)
1 | O=C1CCC(N2Cc3cc(CNCC4CCN(c5ncc(-c6cccc7ccccc67)cn5)CC4)ccc3C2=O)C(=O)N1 (centres unmarked) [Compound A62] | 27 | significantly degrade GSPT1 protein | 16 | 45 | 17 | 2 | – | –
2 | O=C1CCC(N2Cc3cc(CNCC4CCN(c5ncc(-c6cccc(Cl)c6)cc5C(F)(F)F)CC4)ccc3C2=O)C(=O)N1 (centres unmarked) [Compound A80] | 5 | significantly degrade GSPT1 protein | 3 | 17 | 0 | < 0.2 | completely degrade both GSPT1 and c-Myc | completely degrade both GSPT1 and c-Myc
3 | O=C1CCC(N2Cc3cc(CNC(=O)C(F)(F)c4ccc(Cl)cc4)ccc3C2=O)C(=O)N1 (centres unmarked) [CC-90009, reference compound] | 78 | – | – | 85 | – | – | – | no ability to degrade c-Myc protein
